Experimental data as given in the NIST ThermoML archive (doi:10.1016/j.jct.2017.03.026).
Several values for one entry are separate records, joined by “and”; a condition that tells them apart may be missing. Identical values can stand only once.

Assay: molar heat capacity at constant pressure
Conditions: 101.33 kPa, Crystal, Small (less than 1 g) adiabatic calorimetry

O.O.O.O.O.O=S(=O)([O-])[O-].[Cu+2] [copper(II) sulfate pentahydrate]
Conditions | molar heat capacity at constant pressure
101.73 K | 117.59 J/K/mol
101.86 K | 118.59 J/K/mol
102.08 K | 117.97 J/K/mol
102.79 K | 118.7 J/K/mol
102.91 K | 119.62 J/K/mol
103.83 K | 120.63 J/K/mol
103.84 K | 119.78 J/K/mol
103.89 K | 120.08 J/K/mol
103.96 K | 120.8 J/K/mol
104.14 K | 120.09 J/K/mol
104.36 K | 121.29 J/K/mol
104.89 K | 120.9 J/K/mol
105.01 K | 121.85 J/K/mol
105.93 K | 122.01 J/K/mol
106.06 K | 122.97 J/K/mol
106.2 K | 122.39 J/K/mol
106.46 K | 123.36 J/K/mol
106.97 K | 123.24 J/K/mol
106.98 K | 123.14 J/K/mol
107.12 K | 123.92 J/K/mol
107.46 K | 124.56 J/K/mol
108.03 K | 124.25 J/K/mol
108.17 K | 125.23 J/K/mol
108.27 K | 124.44 J/K/mol
109.08 K | 125.36 J/K/mol
109.1 K | 126.13 J/K/mol
109.23 K | 126.17 J/K/mol
110 K | 126.2 J/K/mol
110.06 K | 126.42 J/K/mol
110.13 K | 126.46 J/K/mol
110.29 K | 127.26 J/K/mol
110.33 K | 126.54 J/K/mol
110.57 K | 127.78 J/K/mol
111.18 K | 127.44 J/K/mol
111.37 K | 128.56 J/K/mol
111.74 K | 128.74 J/K/mol
112.23 K | 128.52 J/K/mol
112.4 K | 128.7 J/K/mol
112.43 K | 129.57 J/K/mol
113.16 K | 129.6 J/K/mol
113.29 K | 129.54 J/K/mol
113.49 K | 130.69 J/K/mol
113.69 K | 130.98 J/K/mol
114.34 K | 130.68 J/K/mol
114.38 K | 131.41 J/K/mol
114.47 K | 130.81 J/K/mol
114.56 K | 131.62 J/K/mol
115.39 K | 131.78 J/K/mol
115.62 K | 132.81 J/K/mol
116.25 K | 132.9 J/K/mol
116.44 K | 132.81 J/K/mol
116.54 K | 133.18 J/K/mol
116.68 K | 133.94 J/K/mol
116.81 K | 134.01 J/K/mol
117.02 K | 134.2 J/K/mol
117.5 K | 133.84 J/K/mol
117.75 K | 134.93 J/K/mol
118.55 K | 134.96 J/K/mol
118.62 K | 135 J/K/mol
118.81 K | 136.22 J/K/mol
119.36 K | 135.88 J/K/mol
119.63 K | 136.14 J/K/mol
119.67 K | 137.03 J/K/mol
119.88 K | 137.17 J/K/mol
119.93 K | 137.32 J/K/mol
120 K | 136.3 J/K/mol
120.69 K | 136.94 J/K/mol and 137.14 J/K/mol
120.95 K | 138.19 J/K/mol
121.74 K | 138.15 J/K/mol
122.02 K | 139.11 J/K/mol
122.32 K | 139.58 J/K/mol
122.46 K | 138.97 J/K/mol
122.8 K | 139.17 J/K/mol and 139.26 J/K/mol
123.07 K | 140.4 J/K/mol
123.09 K | 140.26 J/K/mol
123.86 K | 140.26 J/K/mol
124.16 K | 141.38 J/K/mol
124.88 K | 141.31 J/K/mol
124.91 K | 141.44 J/K/mol
124.97 K | 142.22 J/K/mol
125.23 K | 142.7 J/K/mol
125.57 K | 142.11 J/K/mol
125.97 K | 142.63 J/K/mol
126.2 K | 143.67 J/K/mol
126.3 K | 143.66 J/K/mol
126.97 K | 143.36 J/K/mol
127.03 K | 143.46 J/K/mol
127.37 K | 144.66 J/K/mol
127.62 K | 145 J/K/mol
128.08 K | 144.35 J/K/mol
128.47 K | 145.88 J/K/mol
128.7 K | 145.15 J/K/mol
129.05 K | 145.44 J/K/mol
129.14 K | 145.37 J/K/mol
129.38 K | 146.91 J/K/mol
129.54 K | 146.79 J/K/mol
130 K | 146.3 J/K/mol
130.2 K | 146.58 J/K/mol
130.3 K | 147.58 J/K/mol
130.62 K | 147.67 J/K/mol
131.13 K | 147.52 J/K/mol
131.25 K | 147.55 J/K/mol
131.69 K | 149.05 J/K/mol
131.82 K | 148.2 J/K/mol
132.31 K | 148.61 J/K/mol
132.53 K | 150.01 J/K/mol
132.77 K | 150.08 J/K/mol
132.95 K | 150.13 J/K/mol
133.22 K | 149.57 J/K/mol
133.37 K | 149.93 J/K/mol
133.85 K | 151.35 J/K/mol
134.43 K | 150.8 J/K/mol
134.92 K | 152.13 J/K/mol
134.93 K | 151.23 J/K/mol
135.3 K | 151.53 J/K/mol
135.49 K | 151.95 J/K/mol
135.59 K | 152.75 J/K/mol
135.69 K | 153.09 J/K/mol
136 K | 153.04 J/K/mol
136.56 K | 152.7 J/K/mol
137.07 K | 154.23 J/K/mol
137.39 K | 153.55 J/K/mol
137.61 K | 153.75 J/K/mol
138.05 K | 154.26 J/K/mol
138.14 K | 155.44 J/K/mol
138.23 K | 155.31 J/K/mol
138.67 K | 154.9 J/K/mol
138.85 K | 156.32 J/K/mol
139.22 K | 156.25 J/K/mol
139.47 K | 155.53 J/K/mol
139.72 K | 155.9 J/K/mol
140 K | 156 J/K/mol
140.3 K | 157.18 J/K/mol
140.78 K | 156.94 J/K/mol
140.87 K | 157.92 J/K/mol
141.16 K | 157.45 J/K/mol
141.37 K | 158.29 J/K/mol
141.56 K | 157.55 J/K/mol
141.83 K | 157.84 J/K/mol
142.01 K | 159.46 J/K/mol
142.45 K | 159.47 J/K/mol
142.89 K | 158.79 J/K/mol
143.51 K | 160.83 J/K/mol
143.52 K | 160.62 J/K/mol
143.64 K | 159.6 J/K/mol
143.94 K | 159.82 J/K/mol
144.28 K | 160.35 J/K/mol
144.6 K | 161.74 J/K/mol
144.99 K | 160.85 J/K/mol
145.18 K | 162.59 J/K/mol
145.7 K | 162.72 J/K/mol
145.73 K | 161.63 J/K/mol
146.04 K | 161.99 J/K/mol
146.16 K | 163.13 J/K/mol
146.78 K | 163.89 J/K/mol
147.09 K | 162.84 J/K/mol
147.4 K | 163.32 J/K/mol
147.81 K | 163.57 J/K/mol
